Assay results from patent US20110021554A1, “IMMUNE RESPONSE MODIFIER FORMULATIONS AND METHODS” (priority 2004, published 2011).

Experiment: Effect of sodium chloride on solubility of the drug
Format: physicochemical
Details: apparently due to salt formation

Solubility of the drug in presence of sodium chloride: reduces solubility of the drug
SMILES: CCc1nc2c(N)nc3ccccc3c2n1CCCCNS(C)(=O)=O [N-[4-(4-amino-2-ethyl-1H-imidazo[4,5-c]quinolin-1-yl)butyl]methanesulfonamide]
